We go through 11 molecules from ChEMBL document CHEMBL1201862, “PubChem BioAssay data set” (2004).

SMILES strings stand for the structures.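 Dose response: 5 concentrations. Exposure: 48 h. Format: 96-well plates. Endpoint: linear interpolation; highest concentration if not reached. Abbreviation: GI50, concentration required for 50% inhibition of growth.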 Activity calls are given as the source filed them. No stated cut-off is given here; in the data, active = GI50 up to about 1.1 µM and inactive = higher. Square brackets hold non-standard residues; d marks the D form. Peptide text beside a SMILES is read from it. * marks the point of attachment. Boc = CC(C)(C)OC(=O)*; Lac = C[CH](O)C(=O)O; OBn = c1ccc(CO*)cc1 Where only a bound is given, the exact number is not on record here.

Test systems include RPMI-8226; SN12C; CAKI-1; T47D; COLO 205; HT-29; PC-3; HL-60; SF-295; NCI-H522; A498; SF-268; Malme-3M; MCF7; TK-10; NCI-H23; U-251; RXF 393; MDA-MB-435; NCI-H460.
Common to all, as to assay: NCI-60 cell line screen, 48 h

For `COc1cc2cc(C(=O)N3CC(CCl)c4ccc(NO)cc43)[nH]c2c(OC)c1OC` (stereo not drawn), the GI50 in the assay with RPMI-8226 was 0.117 µM (active); in the assay with SN12C, 0.286 µM (active); in the assay on CAKI-1 it was 0.227 µM (active); in the assay on T47D, 0.436 µM (active); in the assay on COLO 205, 0.468 µM (active); in the assay with HT-29, 0.0646 µM (active). Besides, the GI50 in the assay with PC-3 is 0.0914 µM (active); in the assay on HL-60, 0.126 µM (active); with SF-295 it was 0.0836 µM (active); in the assay on NCI-H522, 0.0671 µM (active); in the assay with A498, 0.0675 µM (active); in the assay with SF-268, 0.101 µM (active). Besides, the GI50 with Malme-3M is 0.164 µM (active); in the assay on MCF7 it was 0.0391 µM (active); with TK-10 it was 0.313 µM (active); in the assay with NCI-H23, 0.0693 µM (active); with U-251 it was 0.0927 µM (active); in the assay on RXF 393 it was 0.114 µM (active). Also, the GI50 with MDA-MB-435 was 0.216 µM (active); in the assay on NCI-H460, 0.0446 µM (active).

For `C[C@H]1S[C@@H](c2ccc(Cl)cc2Cl)N(NC(=O)c2ccncc2)C1=O`, the GI50 in the assay with RPMI-8226 is 40.2 µM (inactive); with SN12C, 71.3 µM (inactive); in the assay on CAKI-1 it was 56.2 µM (inactive); with T47D, 33 µM (inactive); in the assay with COLO 205, 70.6 µM (inactive); in the assay with HT-29, > 100 µM (inactive). Moreover, the GI50 in the assay on PC-3 is 33 µM (inactive); with HL-60 it was 98.4 µM (inactive); in the assay on NCI-H522 it was 37.8 µM (inactive); in the assay on A498 it was > 100 µM (inactive); with Malme-3M it was > 100 µM (inactive); with MCF7, 45 µM (inactive). Besides, the GI50 was 50.4 µM (inactive) with NCI-H23; 64 µM (inactive) in the assay on U-251; 25.4 µM (inactive) in the assay on RXF 393; 43.6 µM (inactive) with MDA-MB-435; 58.2 µM (inactive) in the assay on NCI-H460.

Take `Nc1ccccc1C(=O)N/N=C1\C(=O)Nc2ccccc21`: the GI50 in the assay with SN12C, in the assay on CAKI-1, with T47D, in the assay on COLO 205, with HT-29 and with PC-3 was > 100 µM (inactive) each time. Also, the GI50 with SF-295 was > 100 µM (inactive); in the assay with NCI-H522 it was 89.9 µM (inactive); in the assay on A498, 33.2 µM (inactive); with SF-268, 88.7 µM (inactive); with Malme-3M, > 100 µM (inactive); in the assay on MCF7, > 100 µM (inactive). In addition, the GI50 was 32.5 µM (inactive) in the assay on TK-10; 56.2 µM (inactive) in the assay with NCI-H23; 40.2 µM (inactive) in the assay with U-251; 68.7 µM (inactive) in the assay with RXF 393; > 100 µM (inactive) in the assay on MDA-MB-435; > 100 µM (inactive) in the assay with NCI-H460.

On to `CCC(=O)NC(Nc1cccc(F)c1)(C(F)(F)F)C(F)(F)F`, for which the GI50 in the assay with RPMI-8226 was > 100 µM (inactive); in the assay with SN12C, 37.7 µM (inactive); with CAKI-1 it was 10.7 µM (inactive); with T47D, > 100 µM (inactive); with COLO 205 it was > 100 µM (inactive); in the assay with HT-29, > 100 µM (inactive). For the same molecule, the GI50 with PC-3 was > 100 µM (inactive); with HL-60, 86.9 µM (inactive); with SF-295, > 100 µM (inactive); in the assay with NCI-H522, 29.6 µM (inactive); in the assay on SF-268, > 100 µM (inactive); in the assay on MCF7, > 100 µM (inactive). For the same molecule, the GI50 in the assay on TK-10 is > 100 µM (inactive); with NCI-H23, > 100 µM (inactive); in the assay with U-251, 90.6 µM (inactive); in the assay with RXF 393, > 100 µM (inactive); in the assay with MDA-MB-435, > 100 µM (inactive); in the assay with NCI-H460 it was > 100 µM (inactive).

For `O=C1CSC(/C=C/c2ccccc2)N1c1nc2cc3sc(N4C(=O)CSC4/C=C/c4ccccc4)nc3cc2s1` (stereo not drawn), the GI50 is 22 µM (inactive) in the assay with RPMI-8226; 18.3 µM (inactive) with SN12C; 53 µM (inactive) in the assay on CAKI-1; > 100 µM (inactive) in the assay on T47D; 3.66 µM (inactive) in the assay on COLO 205; 18 µM (inactive) in the assay on HT-29. Further, the GI50 in the assay with PC-3 is 54.2 µM (inactive); in the assay with HL-60, 68.1 µM (inactive); in the assay with SF-295 it was > 100 µM (inactive); in the assay with NCI-H522, 6.97 µM (inactive); with A498, > 100 µM (inactive); in the assay with SF-268, > 100 µM (inactive). The GI50 is > 87.1 µM (inactive) with Malme-3M; 13.5 µM (inactive) in the assay on MCF7; 37.2 µM (inactive) in the assay with TK-10; > 48.3 µM (inactive) in the assay on NCI-H23; 44.6 µM (inactive) in the assay with U-251; > 100 µM (inactive) in the assay with RXF 393. For the same molecule, the GI50 in the assay with MDA-MB-435 is > 65.6 µM (inactive); in the assay with NCI-H460, 3.33 µM (inactive).

On to `COC(=O)C(F)C(Br)C(=O)OC` (stereo not drawn), for which the GI50 in the assay with RPMI-8226 is 1.41 µM (inactive); in the assay on SN12C, 16.9 µM (inactive); with CAKI-1, 2.35 µM (inactive); in the assay on T47D, 2.15 µM (inactive); in the assay with COLO 205 it was 1.67 µM (inactive); in the assay with HT-29 it was 2.57 µM (inactive). The GI50 was 3.63 µM (inactive) in the assay with PC-3; 1.95 µM (inactive) in the assay with HL-60; 26.4 µM (inactive) in the assay with SF-295; 1.43 µM (inactive) with NCI-H522; 20.9 µM (inactive) with A498; 7.71 µM (inactive) in the assay with SF-268. The GI50 in the assay on Malme-3M was 6.47 µM (inactive); with MCF7, 3.42 µM (inactive); with TK-10, 2.38 µM (inactive); in the assay on NCI-H23, 6.03 µM (inactive); in the assay with U-251 it was 3.05 µM (inactive); with RXF 393, 2.18 µM (inactive). The GI50 with MDA-MB-435 is 8.38 µM (inactive); in the assay on NCI-H460, 18.9 µM (inactive).

For the molecule `CC(OC(=O)C(Cc1ccccc1)NC(=O)C(Cc1ccccc1)NC(=O)OC(C)(C)C)C(=O)OCc1ccccc1` (stereo not drawn) (Boc-Phe-Phe-[Lac]-OBn; configuration not given here), the GI50 was 94 µM (inactive) in the assay on RPMI-8226; > 100 µM (inactive) with SN12C; > 100 µM (inactive) with CAKI-1; > 100 µM (inactive) with T47D; > 100 µM (inactive) in the assay with COLO 205; > 100 µM (inactive) in the assay with PC-3. In addition, the GI50 is > 100 µM (inactive) in the assay on HL-60; > 100 µM (inactive) in the assay on SF-295; > 100 µM (inactive) in the assay on NCI-H522; > 100 µM (inactive) in the assay on Malme-3M; 17.8 µM (inactive) in the assay with MCF7; > 100 µM (inactive) with NCI-H23. The GI50 in the assay on U-251, with RXF 393, with MDA-MB-435 and in the assay with NCI-H460 was > 100 µM (inactive) throughout.

Regarding `COP(=O)(OC)C(N)Cc1c[nH]c2ccccc12` (stereo not drawn), the GI50 with RPMI-8226, in the assay with SN12C, with CAKI-1, with T47D, with COLO 205 and in the assay with HT-29 was > 100 µM (inactive) each time. Moreover, the GI50 in the assay on PC-3, in the assay with SF-295, in the assay on NCI-H522, in the assay on A498, in the assay with MCF7 and in the assay on TK-10 was > 100 µM (inactive) in each case. For the same molecule, the GI50 in the assay on NCI-H23, with U-251, with MDA-MB-435 and with NCI-H460 was > 100 µM (inactive) throughout.

`COc1cc(/C=C2\N=C(c3ccccc3)N(C3Nc4cc5c(cc4S3)NC(N3C(=O)/C(=C/c4cc(OC)c(OC)c(OC)c4)N=C3c3ccccc3)S5)C2=O)cc(OC)c1OC` (stereo not drawn): the GI50 in the assay with RPMI-8226 is 28.8 µM (inactive); in the assay with CAKI-1, 39.9 µM (inactive); in the assay on T47D it was 56.2 µM (inactive); in the assay on HT-29, 74.6 µM (inactive); in the assay with PC-3 it was 82.6 µM (inactive); in the assay on HL-60, 65.9 µM (inactive). In addition, the GI50 in the assay on SF-295 is 83.6 µM (inactive); in the assay with NCI-H522, 60.3 µM (inactive); in the assay on A498, 68.4 µM (inactive); in the assay on SF-268, > 100 µM (inactive); in the assay on MCF7, 46.7 µM (inactive); in the assay on TK-10, > 100 µM (inactive). The GI50 in the assay on NCI-H23 is 94.6 µM (inactive); with U-251 it was 45.2 µM (inactive); in the assay with RXF 393 it was > 100 µM (inactive); in the assay on MDA-MB-435 it was > 100 µM (inactive); in the assay with NCI-H460, 13.7 µM (inactive).

Consider `O=C1Nc2ccc(Cl)cc2/C1=C\c1c(Cl)nc2sccn12`, for which the GI50 was 0.0514 µM (active) in the assay with RPMI-8226; > 100 µM (inactive) with SN12C; 18.7 µM (inactive) in the assay with CAKI-1; > 100 µM (inactive) in the assay with T47D; 4.93 µM (inactive) in the assay on PC-3; 4.07 µM (inactive) in the assay on HL-60. Also, the GI50 in the assay with SF-295 is 3.96 µM (inactive); in the assay with NCI-H522 it was 5.62 µM (inactive); with A498, 0.0632 µM (active); in the assay with SF-268 it was > 100 µM (inactive); in the assay on Malme-3M, > 100 µM (inactive); in the assay with TK-10, 8.47 µM (inactive). For the same molecule, the GI50 with NCI-H23 was 59 µM (inactive); in the assay on U-251 it was 2.93 µM (inactive); with RXF 393 it was 18.6 µM (inactive); with MDA-MB-435, 0.787 µM (active); with NCI-H460, 1.96 µM (inactive).

As for `CCOc1ccc2c(C)cc(=O)oc2c1`, the GI50 in the assay on RPMI-8226, with SN12C, with CAKI-1, in the assay on T47D, with COLO 205 and with HT-29 was > 100 µM (inactive) throughout. In addition, the GI50 in the assay with PC-3, in the assay with HL-60, in the assay on SF-295, with NCI-H522, in the assay with A498 and with SF-268 was > 100 µM (inactive) each time. Further, the GI50 with Malme-3M, in the assay on MCF7, with NCI-H23, with U-251, with RXF 393 and in the assay with MDA-MB-435 was > 100 µM (inactive) throughout. The GI50 with NCI-H460 is > 100 µM (inactive).
